In article PMC7642680, “The Nontypeable Haemophilus influenzae Major Adhesin Hia Is a Dual-Function Lectin That Binds to Human-Specific Respiratory Tract Sialic Acid Glycan Receptors” (mBio, 2020):
Read-outs that look alike come from different tables or passages of the source.

Assays:
[1] = biological target: T1, Hia (full-length, expressed on E. coli BL21) (Haemophilus influenzae, UniProt Q8GM79); assay: SPR, Hia-expressing BL21 cells immobilised (Biacore C1 chip); assay type: cell-based; settings: 1x PBS pH 7.4; single-cycle kinetics; whole cells
T1 construct: trimeric autotransporter

[2] = biological target: T2, Hia (full-length, expressed on E. coli BL21) (Haemophilus influenzae, UniProt Q8GM79, A619R); settings: read-out: 2-3 SLN-Ac; 1x PBS pH 7.4; whole cells
Excerpt: (§1) SPR, Hia-expressing BL21 cells immobilised (Biacore C1 chip) on Hia (full-length, expressed on E. coli BL21)

[3] = biological target: Hia (full-length, expressed on E. coli BL21) (Haemophilus influenzae, UniProt Q8GM79, D618K); settings: 1x PBS pH 7.4, whole cells
Excerpt: as §1

[4] = biological target: Hia BD1 (binding domain 1) (Haemophilus influenzae, UniProt Q8GM79); assay: SPR, purified BD1 immobilised (Biacore CM5 amine capture); settings: 1x PBS pH 7.4; single-cycle kinetics
[5] = biological target: T2, Hia (full-length, expressed on E. coli BL21); settings: read-out: NB, OneStep injection at 10 μM, whole cells
Excerpt: SPR, OneStep injection, Hia-expressing BL21 cells on Hia (full-length, expressed on E. coli BL21)

Compound	Kd [1] [nM]	further results
CC(=O)N[C@H]1[C@H](O[C@H]2[C@@H](O)[C@@H](CO)O[C@@H](O[C@H]3[C@H](O)[C@@H](O)C(O)O[C@@H]3CO)[C@@H]2O)O[C@H](CO)[C@@H](O[C@@H]2O[C@H](CO)[C@H](O)[C@H](O[C@@]3(C(=O)O)C[C@H](O)[C@@H](NC(C)=O)[C@H]([C@H](O)[C@H](O)CO)O3)[C@H]2O)[C@@H]1O (stereo partly shown) [2-3 Ac-SLNnT]	2030 ± 1490	
CC(=O)N[C@H]1[C@H](O[C@H]2[C@@H](O)[C@@H](CO)O[C@@H](O[C@H]3[C@H](O)[C@@H](O)C(O)O[C@@H]3CO)[C@@H]2O)O[C@H](CO)[C@@H](O[C@@H]2O[C@H](CO)[C@H](O)[C@H](O[C@@]3(C(=O)O)C[C@H](O)[C@@H](NC(=O)CO)[C@H]([C@H](O)[C@H](O)CO)O3)[C@H]2O)[C@@H]1O (stereo partly shown) [2-3 Gc-SLNnT]	5440 ± 1110	
CC(=O)N[C@H]1[C@H]([C@H](O)[C@H](O)CO)O[C@@](O[C@H]2[C@@H](O)[C@@H](CO)O[C@@H](O[C@H]3[C@H](O)[C@@H](NC(C)=O)C(O)O[C@@H]3CO)[C@@H]2O)(C(=O)O)C[C@@H]1O (stereo partly shown) [2-3 SLN-Ac]	2030 ± 443	Kd [2]: 3040 ± 700 nM; Kd ([3]; read-out: 2-3 SLN-Ac): 842 ± 178 nM
CC(=O)N[C@H]1C(O)O[C@H](CO)[C@@H](O[C@@H]2O[C@H](CO)[C@H](O)[C@H](O[C@@]3(C(=O)O)C[C@H](O)[C@@H](NC(=O)CO)[C@H]([C@H](O)[C@H](O)CO)O3)[C@H]2O)[C@@H]1O (stereo partly shown) [2-3 SLN-Gc]	10100 ± 320	
CC(=O)N[C@H]1[C@H]([C@H](O)[C@H](O)CO)O[C@](OC[C@H]2O[C@@H](O[C@H]3[C@H](O)[C@@H](NC(C)=O)C(O)O[C@@H]3CO)[C@H](O)[C@@H](O)[C@H]2O)(C(=O)O)C[C@@H]1O (stereo partly shown) [2-6 SLN-Ac]	185 ± 59.9	Kd [4]: 64.9 ± 5.6 nM; Kd [5]: > 10000 nM; Kd ([3]; read-out: 2-6 SLN-Ac): 21 ± 1 nM
